“Also recorded” adds a separate entry of the source.
Legend:
Type in all cases: in vivo, Sprague Dawley rats
[1] = system: rats with hypoxia-induced pulmonary hypertension; assay: Pulmonary arterial wall thickening assessed histologically (H&E stained lungs) in chronic hypoxia rats; conditions: vs saline
Description: (§1) All animal studies were approved by the Georgetown University Animal Care and Use Committee. Adult Sprague Dawley rats (200-250 g) were placed in specialized cages connected to the OxyCycler Oxygen Profile Controller (BioSpherix, Redfield, N.Y.) which precisely controls the oxygen and nitrogen contents. Animals were subjected to hypoxic gas (10% O2, balance N2). […] Normoxia control animals are subjected to the same conditions except that they were exposed to ambient O2. All animals were fed normal rat chow during treatment and used in accordance with institutional guidelines.
(§2) After 2-weeks of hypoxia or normoxia treatment, animals were injected intraperitoneally with saline or daunorubicin (20 mg/kg body weight; Sigma-Aldrich, St. Louise, Mo.). After injection, animals were placed back in hypoxia or normoxia condition for 3 days.
(§3) As an indication of the development of pulmonary hypertension, right ventricular hypertrophy was estimated by calculating RV/(LV+S), where RV is the mass of right ventricle, LV is the mass of left ventricle and S is the mass of septum. Right ventricular pressure was measured by inserting a 1.4 F Millar Catheter into the right ventricle at the base of apex using PowerLab 8/30 High Performance Data Acquisition System with Chart Pro in anesthetized and ventilated animals. Pulmonary arterial wall thickening was assessed histologically in hematoxylin and eosin stained lungs. Apoptosis of pulmonary vascular cells was monitored using terminal deoxynucleotidyl transferase dUTP nick end labeling (TUNEL) method.
(§4) Comparisons between the 2 groups were analyzed using a two-tailed Student's t test, and comparisons between 3 or more groups were analyzed by ANOVA with a Student-Newman-Keuls post-hoc test. p<0.05 was considered to be significant. […]
(§5) Comparisons between the 2 groups (2 mg/kg vs. control, or 5 mg/kg vs. control) were analyzed using a two-tailed Student's t test, and comparisons between 3 or more groups were analyzed by ANOVA with a Student-Newman-Keuls post-hoc test. p<0.05 was considered to be significant.

[2] = system: pulmonary artery smooth muscle cells; assay: Apoptosis of pulmonary vascular cells by TUNEL method in lungs of treated rats; conditions: daunorubicin 20 mg/kg i.p.
Description: All animal studies were approved by the Georgetown University Animal Care and Use Committee. Adult Sprague Dawley rats (200-250 g) were placed in specialized cages connected to the OxyCycler Oxygen Profile Controller (BioSpherix, Redfield, N.Y.) which precisely controls the oxygen and nitrogen contents. Animals were subjected to hypoxic gas (10% O2, balance N2). […] Normoxia control animals are subjected to the same conditions except that they were exposed to ambient O2. All animals were fed normal rat chow during treatment and used in accordance with institutional guidelines. […]
as §3

[3] = Overall body weight of treated animals; conditions: lower doses of daunorubicin (2 mg/kg and 5 mg/kg i.p.)
[4] = system: normal animals without pulmonary hypertension; assay: Pulmonary vascular wall thickness (H&E stained lungs) in normoxia control rats
Description: as §1, §2, §3, §4, §5

COc1cccc2c1C(=O)c1c(O)c3c(c(O)c1C2=O)C[C@@](O)(C(C)=O)C[C@@H]3O[C@H]1C[C@H](N)[C@H](O)[C@H](C)O1 [daunorubicin]
hypoxia-induced pulmonary vascular wall thickening ([1]; daunorubicin 2 mg/kg i.p. after 2 weeks hypoxia): significantly reducing hypoxia-induced wall thickening; also recorded: significantly reduced hypoxia-induced wall thickening | hypoxia-induced pulmonary vascular wall thickening ([1]; daunorubicin 5 mg/kg i.p. after 2 weeks hypoxia): significantly reducing hypoxia-induced wall thickening; also recorded: significantly reduced hypoxia-induced wall thickening | hypoxia-induced pulmonary vascular wall thickening ([1]; daunorubicin 20 mg/kg i.p. after 2 weeks 10% O2 hypoxia, then 3 more days hypoxia, P<0.05): reduced thickening of pulmonary vascular walls; also recorded: significantly reduced this hypoxia-induced wall thickening | TUNEL-positive (apoptotic) cells in pulmonary vascular walls ([2]; hypoxia-exposed rats, saline controls showed none): induction of apoptosis in pulmonary vascular walls; also recorded: presented TUNEL-positive cells | selectivity of apoptosis induction: thickened vs normal pulmonary vessels ([2]; hypoxia rats (FIG. 3A) vs normoxia rats (FIG. 3B)): can selectively kill pulmonary artery smooth muscle cells involved in thickened vascular walls | overall body weight of the animals [3]: not significantly affecting the overall body weight; also recorded: do not significantly impact the overall body weight | thickness of the vascular walls in normal animals ([4]; daunorubicin 2 mg/kg i.p.): did not affect the thickness of the vascular walls | thickness of the vascular walls in normal animals ([4]; daunorubicin 5 mg/kg i.p.): did not affect the thickness of the vascular walls | thickness of the vascular walls in normal animals ([4]; daunorubicin 20 mg/kg i.p.): did not affect the thickness of the vascular walls

— US20130131002A1, “COMPOSITIONS AND METHODS FOR TREATING PULMONARY HYPERTENSION” (Georgetown University, priority 2010, published 2013)
